Values joined by “and” are separate entries in the source; they are usually repeats but may differ in a detail not shown here. Equal entries are not always repeated. Inconclusive results and toxic doses are left out. Rule as the data show it: active = T/C of 150% or more; inactive = T/C below 125%.
Test system: L1210 leukemia ip in BDF1 mice, survival T/C
Experiment: NCI In Vivo Anticancer Drug Screen. Data for tumor model L1210 Leukemia (intraperitoneal) in B6D2F1 (BDF1) mice
Settings: endpoint: mean survival time, higher = longer survival
In short: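 Survival endpoint. Drug-treated group vs vehicle group, expressed as T divided by C. Tumor passaged by transplantation.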

[1] = dose: 100.0 mg/kg/injection, schedule: Q01DX001 (ip), vehicle: saline
[2] = dose: 200.0 mg/kg/injection, schedule: Q01DX001 (ip), vehicle: saline
[3] = dose: 400.0 mg/kg/injection, schedule: Q01DX001 (ip), vehicle: saline
[4] = dose: 100.0 mg/kg/injection, schedule: Q04DX002 (ip), vehicle: Klucel (hydroxypropylcellulose) (HPC)
[5] = dose: 200.0 mg/kg/injection, schedule: Q04DX002 (ip), vehicle: Klucel (hydroxypropylcellulose) (HPC)
[6] = dose: 100.0 mg/kg/injection, schedule: Q04DX003 (ip), vehicle: saline with Tween-80
[7] = dose: 200.0 mg/kg/injection, schedule: Q04DX003 (ip), vehicle: saline with Tween-80
[8] = dose: 400.0 mg/kg/injection, schedule: Q04DX003 (ip), vehicle: saline with Tween-80

Measured: T/C

N#Cc1cn(C2OC(CO)C(O)C2O)c2nc(Cl)nc(N)c12 (stereo not drawn)
inactive: dose: 7.5 mg/kg/injection, schedule: Q01DX005 (ip), vehicle: saline 114 % of control | dose: 12.5 mg/kg/injection, schedule: Q01DX005 (ip), vehicle: saline 119 % of control | dose: 12.5 mg/kg/injection, schedule: Q01DX009 (ip), vehicle: saline 117 % of control | dose: 21.0 mg/kg/injection, schedule: Q01DX005 (ip), vehicle: saline 108 % of control | dose: 25.0 mg/kg/injection, schedule: Q01DX005 (ip), vehicle: saline 118 % of control | dose: 25.0 mg/kg/injection, schedule: Q01DX009 (ip), vehicle: saline 98 % of control

O=C(CCCC(=O)N/N=C/c1ccccc1Cl)N/N=C\c1ccccc1Cl
inactive: dose: 50.0 mg/kg/injection, schedule: Q01DX001 (ip), vehicle: saline 103 % of control | [1] 100 % of control | [2] 110 % of control | [3] 110 % of control

Cc1ccc(S(=O)(=O)[n+]2ccc(C)cc2)cc1
inactive: [4] 98 % of control | [5] 95 % of control

CC(CCOCC1CO1)OCC1CO1 (stereo not drawn)
inactive: dose: 100.0 mg/kg/injection, schedule: Q01DX009 (ip), vehicle: saline 101 % of control | dose: 100.0 mg/kg/injection, schedule: Q04DX003 (ip), vehicle: saline 106 % of control | dose: 200.0 mg/kg/injection, schedule: Q01DX009 (ip), vehicle: saline 113 % of control | dose: 200.0 mg/kg/injection, schedule: Q04DX003 (ip), vehicle: saline 105 % of control | dose: 400.0 mg/kg/injection, schedule: Q01DX009 (ip), vehicle: saline 120 % of control | dose: 400.0 mg/kg/injection, schedule: Q04DX003 (ip), vehicle: saline 120 % of control

O=NN(CCO)C(=O)Nc1ccc(NC(=O)N(CCO)N=O)cc1
inactive: dose: 9.0 mg/kg/injection, schedule: Q01DX001 (ip), vehicle: carboxymethylcellulose (CMC) 106 % of control | dose: 18.0 mg/kg/injection, schedule: Q01DX001 (ip), vehicle: carboxymethylcellulose (CMC) 108 % of control | dose: 26.0 mg/kg/injection, schedule: Q01DX001 (ip), vehicle: carboxymethylcellulose (CMC) 114 % of control | dose: 40.0 mg/kg/injection, schedule: Q01DX001 (ip), vehicle: carboxymethylcellulose (CMC) 111 % of control | dose: 60.0 mg/kg/injection, schedule: Q01DX001 (ip), vehicle: carboxymethylcellulose (CMC) 111 % of control

CSc1ccc(C(=O)C(CO)NC(C)=O)cc1 (stereo not drawn)
inactive: [1] 110 % of control | [2] 98 % of control | [3] 97 % of control

Cc1cc(OC(=O)Nc2ccc(Cl)cc2)ccc1Cl
inactive: dose: 100.0 mg/kg/injection, schedule: Q01DX001 (ip), vehicle: other 103 % of control | dose: 100.0 mg/kg/injection, schedule: Q01DX009 (ip), vehicle: other 93 % of control and 100 % of control | [4] 106 % of control | dose: 100.0 mg/kg/injection, schedule: Q04DX002 (ip), vehicle: other 95 % of control and 91 % of control | dose: 100.0 mg/kg/injection, schedule: Q04DX003 (ip), vehicle: other 96 % of control | dose: 200.0 mg/kg/injection, schedule: Q01DX001 (ip), vehicle: other 96 % of control | dose: 200.0 mg/kg/injection, schedule: Q01DX009 (ip), vehicle: other 93 % of control and 95 % of control | [5] 117 % of control | dose: 200.0 mg/kg/injection, schedule: Q04DX002 (ip), vehicle: other 100 % of control and 91 % of control | dose: 200.0 mg/kg/injection, schedule: Q04DX003 (ip), vehicle: other 91 % of control | dose: 400.0 mg/kg/injection, schedule: Q01DX001 (ip), vehicle: other 96 % of control | dose: 400.0 mg/kg/injection, schedule: Q01DX009 (ip), vehicle: other 92 % of control and 86 % of control | dose: 400.0 mg/kg/injection, schedule: Q04DX002 (ip), vehicle: Klucel (hydroxypropylcellulose) (HPC) 95 % of control | dose: 400.0 mg/kg/injection, schedule: Q04DX002 (ip), vehicle: other 91 % of control and 92 % of control | dose: 400.0 mg/kg/injection, schedule: Q04DX003 (ip), vehicle: other 95 % of control

CCSc1ncc2cnccn12
inactive: dose: 25.0 mg/kg/injection, schedule: Q01DX009 (ip), vehicle: water 91 % of control | dose: 50.0 mg/kg/injection, schedule: Q01DX009 (ip), vehicle: water 100 % of control | dose: 100.0 mg/kg/injection, schedule: Q04DX003 (ip), vehicle: water 91 % of control

CCCCCNCCO
inactive: dose: 75.0 mg/kg/injection, schedule: Q01DX001 (ip), vehicle: saline 105 % of control | dose: 150.0 mg/kg/injection, schedule: Q01DX001 (ip), vehicle: saline 105 % of control | dose: 300.0 mg/kg/injection, schedule: Q01DX001 (ip), vehicle: saline 109 % of control

COC(=O)C1CNc2ccccc2C1=O (stereo not drawn)
inactive: dose: 50.0 mg/kg/injection, schedule: Q01DX001 (ip), vehicle: carboxymethylcellulose (CMC) 97 % of control | dose: 100.0 mg/kg/injection, schedule: Q01DX001 (ip), vehicle: carboxymethylcellulose (CMC) 92 % of control | dose: 200.0 mg/kg/injection, schedule: Q01DX001 (ip), vehicle: carboxymethylcellulose (CMC) 97 % of control | dose: 400.0 mg/kg/injection, schedule: Q01DX001 (ip), vehicle: carboxymethylcellulose (CMC) 92 % of control

CCn1nnnc1-c1ccc(Cl)cc1
inactive: [6] 98 % of control | [7] 98 % of control | [8] 98 % of control

COC(OC)C1=C(Cl)C(Cl)=C(Cl)/C1=N\Nc1ccccc1
inactive: dose: 100.0 mg/kg/injection, schedule: Q04DX003 (ip), vehicle: Klucel (hydroxypropylcellulose) (HPC) 109 % of control | dose: 200.0 mg/kg/injection, schedule: Q04DX003 (ip), vehicle: Klucel (hydroxypropylcellulose) (HPC) 98 % of control | dose: 400.0 mg/kg/injection, schedule: Q04DX003 (ip), vehicle: Klucel (hydroxypropylcellulose) (HPC) 100 % of control

COc1cc(Cc2nccc3ccccc23)cc([N+](=O)[O-])c1OC
inactive: dose: 50.0 mg/kg/injection, schedule: Q04DX002 (ip), vehicle: saline with Tween-80 97 % of control | dose: 100.0 mg/kg/injection, schedule: Q04DX002 (ip), vehicle: saline with Tween-80 93 % of control | dose: 200.0 mg/kg/injection, schedule: Q04DX002 (ip), vehicle: saline with Tween-80 90 % of control | dose: 400.0 mg/kg/injection, schedule: Q04DX002 (ip), vehicle: saline with Tween-80 87 % of control

O=C(NC(Cc1cnc[nH]1)C(=O)O)OCc1ccccc1 (stereo not drawn)
inactive: dose: 100.0 mg/kg/injection, schedule: Q01DX009 (ip), vehicle: saline with Tween-80 100 % of control | [6] 100 % of control | dose: 200.0 mg/kg/injection, schedule: Q01DX009 (ip), vehicle: saline with Tween-80 100 % of control | [7] 98 % of control | dose: 400.0 mg/kg/injection, schedule: Q01DX009 (ip), vehicle: saline with Tween-80 96 % of control | [8] 101 % of control

CC(=O)Oc1cc(OC(C)=O)c(Oc2cc(OC(C)=O)c(Oc3cc(OC(C)=O)c(OC(C)=O)c(OC(C)=O)c3)c(OC(C)=O)c2)c(OC(C)=O)c1
inactive: dose: 50.0 mg/kg/injection, schedule: Q04DX003 (ip), vehicle: saline with Tween-80 97 % of control | [6] 95 % of control | [7] 95 % of control

N/N=C(\N)NN
inactive: dose: 15.0 mg/kg/injection, schedule: Q01DX Z (ip), vehicle: methylcellulose (MC) 102 % of control | dose: 30.0 mg/kg/injection, schedule: Q01DX Z (ip), vehicle: methylcellulose (MC) 100 % of control | dose: 60.0 mg/kg/injection, schedule: Q01DX Z (ip), vehicle: methylcellulose (MC) 102 % of control | dose: 120.0 mg/kg/injection, schedule: Q01DX Z (ip), vehicle: methylcellulose (MC) 105 % of control | dose: 240.0 mg/kg/injection, schedule: Q01DX Z (ip), vehicle: methylcellulose (MC) 114 % of control | dose: 240.0 mg/kg/injection, schedule: Q01DX Z (oral), vehicle: methylcellulose (MC) 95 % of control | dose: 420.0 mg/kg/injection, schedule: Q01DX Z (oral), vehicle: methylcellulose (MC) 100 % of control | dose: 480.0 mg/kg/injection, schedule: Q01DX Z (ip), vehicle: methylcellulose (MC) 103 % of control | dose: 600.0 mg/kg/injection, schedule: Q01DX Z (oral), vehicle: methylcellulose (MC) 105 % of control | dose: 720.0 mg/kg/injection, schedule: Q01DX Z (ip), vehicle: methylcellulose (MC) 119 % of control

CCCCCCOc1ccc(C=Nc2ccc(C(=O)OCC)cc2)cc1
inactive: dose: 50.0 mg/kg/injection, schedule: Q01DX009 (ip), vehicle: Klucel (hydroxypropylcellulose) (HPC) 96 % of control | dose: 100.0 mg/kg/injection, schedule: Q01DX009 (ip), vehicle: Klucel (hydroxypropylcellulose) (HPC) 97 % of control | dose: 200.0 mg/kg/injection, schedule: Q01DX009 (ip), vehicle: Klucel (hydroxypropylcellulose) (HPC) 97 % of control

— PubChem BioAssay AID248 (DTP/NCI, 2004)
